Like-named read-outs stand apart in the source and are kept apart here.
Experiments:
[1] = target: human α2δ-1 subunit of Cav2.2 calcium channel (Homo sapiens, UniProt P54289); experiment: Binding assay to human α2δ-1 subunit of Cav2.2 calcium channel ([3H]-Gabapentin); settings: read-out: Ki(nM) alpha2delta Hum
Experimental: • Binding assay to human α2δ-1 subunit of Cav2.2 calcium channel.
Human α2δ-1 enriched membranes (2.5 μg) were incubated with 15 nM of radiolabeled [3H]-Gabapentin in assay buffer containing Hepes-KOH 10 mM, pH 7.4.
(§1) NSB (non specific binding) was measured by adding 10 μM pregabalin. The binding of the test compound was measured at five different concentrations. After 60 min of incubation at 27° C., the binding reaction was terminated by filtering through Multiscreen GF/C (Millipore) presoaked in 0.5% polyethyleneimine in Vacuum Manifold Station, followed by 3 washes with ice-cold filtration buffer containing 50 mM Tris-HCl, pH 7.4.
(§2) Filter plates were dried at 60° C. for 1 h and 30 μl of scintillation cocktail were added to each well before radioactivity reading.
(§3) Readings were performed in a Trilux 1450 Microbeta radioactive counter (Perkin Elmer). • Binding assay to human norepinephrine transporter (NET).

[2] = target: human norepinephrine transporter (NET) (Homo sapiens, UniProt P23975); experiment: Binding assay to human norepinephrine transporter (NET) ([3H]-Nisoxetin); settings: Table 2, dual compounds, human NET enriched membranes, read-out: Ki(nM) NET Hum
Chain of human norepinephrine transporter (NET) (P23975 whole entry): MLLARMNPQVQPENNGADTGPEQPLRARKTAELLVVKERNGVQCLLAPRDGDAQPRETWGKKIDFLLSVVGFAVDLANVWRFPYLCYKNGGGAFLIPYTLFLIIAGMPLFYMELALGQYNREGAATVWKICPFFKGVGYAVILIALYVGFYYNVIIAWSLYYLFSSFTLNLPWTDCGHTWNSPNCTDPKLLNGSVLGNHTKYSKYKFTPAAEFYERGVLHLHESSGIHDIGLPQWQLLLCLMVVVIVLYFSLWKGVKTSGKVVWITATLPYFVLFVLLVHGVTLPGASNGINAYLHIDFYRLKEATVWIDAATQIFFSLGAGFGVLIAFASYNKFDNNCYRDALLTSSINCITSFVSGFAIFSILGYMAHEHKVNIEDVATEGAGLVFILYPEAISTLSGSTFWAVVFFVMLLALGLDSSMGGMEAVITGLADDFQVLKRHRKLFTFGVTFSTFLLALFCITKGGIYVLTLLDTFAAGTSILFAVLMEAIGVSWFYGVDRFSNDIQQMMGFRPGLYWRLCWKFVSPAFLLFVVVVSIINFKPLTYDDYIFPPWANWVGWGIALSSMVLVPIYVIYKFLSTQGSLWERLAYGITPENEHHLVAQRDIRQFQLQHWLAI
Experimental: as §3
Human norepinephrine transporter (NET) enriched membranes (5 μg) were incubated with 5 nM of radiolabeled [3H]-Nisoxetin in assay buffer containing 50 mM Tris-HCl, 120 mM NaCl, 5 mM KCl, pH 7.4.
as §1, with “desipramine.” for “pregabalin.”, “min” for “min of”, “4°” for “27°”, “C.,” for “C., the”, “Tris-HCl, 0.9% NaCl,” for “Tris-HCl,”
as §2
Readings were performed in a Trilux 1450 Microbeta radioactive counter (Perkin Elmer).

Chain of human α2δ-1 subunit of Cav2.2 calcium channel (P54289 25-1103): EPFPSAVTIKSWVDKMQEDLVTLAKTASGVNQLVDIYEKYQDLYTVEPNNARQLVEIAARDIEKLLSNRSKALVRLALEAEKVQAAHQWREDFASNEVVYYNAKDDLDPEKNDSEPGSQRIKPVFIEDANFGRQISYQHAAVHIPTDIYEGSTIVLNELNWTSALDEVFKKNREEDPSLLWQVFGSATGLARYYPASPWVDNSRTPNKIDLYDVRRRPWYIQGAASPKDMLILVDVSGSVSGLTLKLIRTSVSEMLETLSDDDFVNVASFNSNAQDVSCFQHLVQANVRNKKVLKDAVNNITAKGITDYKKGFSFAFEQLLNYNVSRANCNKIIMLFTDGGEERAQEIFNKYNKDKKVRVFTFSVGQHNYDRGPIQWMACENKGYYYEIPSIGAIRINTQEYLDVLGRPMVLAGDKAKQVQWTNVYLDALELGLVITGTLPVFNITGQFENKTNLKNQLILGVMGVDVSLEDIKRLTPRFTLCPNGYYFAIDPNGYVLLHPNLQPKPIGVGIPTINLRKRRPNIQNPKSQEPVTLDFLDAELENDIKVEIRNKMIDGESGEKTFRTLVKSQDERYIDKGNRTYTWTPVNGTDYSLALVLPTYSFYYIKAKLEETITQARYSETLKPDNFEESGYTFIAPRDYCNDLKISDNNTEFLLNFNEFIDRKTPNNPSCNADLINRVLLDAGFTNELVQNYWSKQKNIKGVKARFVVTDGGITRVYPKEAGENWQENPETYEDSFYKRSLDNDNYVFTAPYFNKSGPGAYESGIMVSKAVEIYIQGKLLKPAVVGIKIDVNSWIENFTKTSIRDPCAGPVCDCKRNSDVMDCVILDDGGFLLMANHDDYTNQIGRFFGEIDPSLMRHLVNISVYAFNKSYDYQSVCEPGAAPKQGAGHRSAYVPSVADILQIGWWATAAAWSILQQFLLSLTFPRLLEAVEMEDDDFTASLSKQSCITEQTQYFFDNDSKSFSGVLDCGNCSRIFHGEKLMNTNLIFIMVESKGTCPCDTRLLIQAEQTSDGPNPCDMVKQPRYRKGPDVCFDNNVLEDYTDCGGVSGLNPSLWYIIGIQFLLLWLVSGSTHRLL

SMILES: CNCCC(Oc1cccc2c1CCCN2C)c1cccs1 (stereo not drawn) [Example 1, N-Methyl-3-((1-methyl-1,2,3,4-tetrahydroquinolin-5-yl)oxy)-3-(thiophen-2-yl)propan-1-amine]
- Ki ([1]; Table 1, human α2δ-1 enriched membranes): 100 to 500 nM
- Ki ([1]; Table 2, dual compounds, human α2δ-1 enriched membranes): 100 to 500 nM
- Ki [2]: 500 to 1000 nM

Source: patent US20190345146A1, “NITROGEN CONTAINING BICYCLIC DERIVATIVES FOR TREATING PAIN AND PAIN RELATED CONDITIONS” (ESTEVE PHARMACEUTICALS, S.A., priority 2016, published 2019)
